# Measured values as given in patent publication EP1693059A1, “Use of rocaglamide derivatives as NF-AT-specific inhibitors for the treatment of certain inflammatory diseases” (Deutsches Krebsforschungszentrum, priority 2005, dated 2006).
# Assays:
# NF-kappa B subunit p65 = experiment: Immunoblot of nuclear NF-kappa B subunit p65 in activated Jurkat T cells; type: cell-based, human; conditions: PMA/ionomycin 2 h
# Method: Many inflammatory cytokine genes are transcriptionally activated by the inducible, ubiquitous transcription factors NF-AT, AP-1 and NF-kappa B (Tsai et al., 1996; Sica et al., 1997; Falvo et al., 2000; Macian et aL, 2001; Kaminuma et al., 2002; Li-Weber & Krammer, 2003). Therefore, we first examined the effect of the rocagtamide derivatives on nuclear expression levels of NF-AT, the AP-1 subunit c-Jun, and the NF-kappa B subunit p65 in activated T cells. Nuclear proteins were prepared from Jurkat T cells, stimulated by PMA/iouomycin for 2 h in the presence or absence of different doses of rocaglamides. […] CsA is a well known immunosuppressive reagent that targets NF-AT activity.
# NF-kappa B [1] = experiment: NF-kappa B consensus luciferase reporter in Jurkat T cells; type: cell-based, human; conditions: for inhibition of NF-kappa B-dependent transcription: doses higher than 150 nM, 480 min
# Source text: Luciferase reporter construct containing the human IL-2 (-300/+47), the human IL-4 (-269/+11) promoter and the multiple IL-4 NF-AT (P1) luciferase constructs were generated previously (Ehret et al., 2001; Li-Weber et al., 1998). The multiple copies of the AP-1 binding site from SV40 enhancer ([…]), the NF-kappa B consensus sequence ([…]) and the human IL-2 NF-AT (-282/-250) element ([…]) were constructed by ligation of the DNA sequence into the multiple-cloning site of pTATA-Luc vector. The luciferase reporter construct containing the human IFN-γ (-854/+7) promoter was construct by ligation of the IFN-γ promoter sequence generated by PCR into the luciferase reporter vector. All constructs were confirmed by sequencing analysis. The pLuc-Bax promoter reporter plasmid was kindly provided by M. L. Schmitz (Department for Chemistry and Biochemistry, University of Bern, Switzerland).
# Jurkat T cells were transfected by eleclroporation as previously described (Li-Weber et al., 1998). After overnight recovering, the cells were divided and treated with different doses of rocaglamides and than further cultured in the absence or presence of PMA (10 ng/ml) and ionomycin (0.5 µM) for 8 h. Luciferase activity was determined in 10 µl of cell extract using the luciferase assay substrate (Promega Corp., Heidelberg, Germany) with a Duolumat LB9507 luminometer (Berthold, Bad Wildbad, Germany).
# Characteristically, NF-AT family proteins act synergistically with AP-1 (Fos/Jun) proteins to activate genes containing composite NF-AT and AP-1 binding sites (Macian et al., 2001). Many cytokine genes, including IL-2, IL-4, and IFN-γ contain NF-AT/AP-1 composite sites in their promoter/enhancer region (Rao et al., 1997). To investigate whether inhibition of NF-AT and c-Jun expression by rocaglamides would lead to suppression of their transcriptional activities, we performed transfection studies with luciferase reporter constructs containing multiple copies of the NF-AT-binding elements derived from the IL-4 and IL-2 promoter and the consensus binding sequences for AP-1 and NF-kappa B, respectively. […]
# JNK = experiment: Immunoblot of phosphorylated JNK in Jurkat T cells; type: cell-based, human; conditions: with PMA/ionomycin
# Method: T cells were lysed in ice-cold RIPA buffer (50 mM Tris-HCl, pH 8.0, 120 mM NaCI, 1% NP-40, 0.5% Desoxycholate, 1 mM PMSF, 25 mM NaF, 1% SDS, 1 mM DTT, 0.2 mM Na3V04 and 20 µl/ml protease inhibitors) for 30 min. […] Equal amounts of proteins were separated on 10% SDS-PAGE gels, transferred onto Hybond-ECL nitrocellulose membrane (Amersham Biosciences, Little Chalfon, UK). The membrane was blocked with 5% milk powder in PBS/0.1% Tween 20 for 1 h, washed with the same solution and incubated with antibodies at 37°C for 1 h or overnight at 4 °C. The blots were washed with PBS/Tween and developed with HRP-coupled antibodies followed by enhanced Chemiluminescence Reagent Plus (PerkinElmer Life Sciences, Boston, MA). […] For stripping, membranes were incubated for 30 min at 56 °C in a buffer containing 62.5 mM Tris-HCl, pH 6.7, 2% SDS and 100 mM β-mercaptoethanol.
# To investigate the molecular mechanisms of rocaglamides-mediated suppression of NF-AT activity, we examined the effect of rocaglamides on activities of MAP kinases.
# NF-kappa B [2] = conditions: Baumann et al., 2002; cited from earlier work
Structure (SMILES),nuclear levels of p65 (NF-kappa B subunit p65),NF-kappa B activity (NF-kappa B [1]; concentrations up to 100 nM),expression of phosphor-JNK (p-JNK) (JNK),NF-kappa B activity induced by TNF-α or PMA (NF-kappa B [2]),inhibition of NF-kappa B-dependent transcription (NF-kappa B [1])
COc1ccc([C@@]23Oc4cc(OC)cc(OC)c4[C@]2(O)[C@H](O)[C@H](C(=O)N(C)C)[C@H]3c2ccccc2)cc1 [Roc-1],slightly elevated,subtle increase,stronger inducers of p-JNK than Roc-2,inhibit NF-kappa B activity,–
COc1ccc([C@@]23Oc4cc(OC)cc(OC)c4[C@]2(O)[C@H](OC(C)=O)[C@H](C(=O)N(C)C)[C@H]3c2ccccc2)cc1 [Roc-2],–,–,Roc-1 and 3 are stronger inducers of p-JNK than Roc-2,–,about 20%
COC(=O)[C@H]1[C@@H](OC=O)[C@@]2(O)c3c(OC)cc(OC)cc3O[C@@]2(c2ccc3c(c2)OCO3)[C@@H]1c1ccccc1 [Roc-3],–,–,stronger inducers of p-JNK than Roc-2,–,about 20%
